Data published in ChEMBL document CHEMBL1201862, “PubChem BioAssay data set” (2004).
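These data come from cells grown in 96-well plates and exposed to compound for 48 hours at five concentrations. Abbreviation: GI50, concentration required for 50% inhibition of growth.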 Activity calls are given as the source filed them. Rule as the data show it: active = GI50 up to about 1.1 µM and inactive = higher.

Assays:
Experiment in all cases: NCI-60 cell line screen, 48 h
[1] = system: 786-0
[2] = system: A549
[3] = system: ACHN
[4] = system: BT-549
[5] = system: CAKI-1
[6] = system: CCRF-CEM
[7] = system: COLO 205
[8] = system: DU-145
[9] = system: EKVX
[10] = system: HCC 2998
[11] = system: HCT-116
[12] = system: HCT-15
[13] = system: HL-60
[14] = system: HOP-62
[15] = system: HOP-92
[16] = system: HT-29
[17] = system: Hs-578T
[18] = system: K562
[19] = system: KM12
[20] = system: LOX IMVI
[21] = system: MCF7
[22] = system: MDA-MB-231
[23] = system: MDA-N
[24] = system: MOLT-4
[25] = system: Malme-3M
[26] = system: NCI-H226
[27] = system: NCI-H23
[28] = system: NCI-H460
[29] = system: NCI/ADR-RES
[30] = system: OVCAR-3
[31] = system: OVCAR-4
[32] = system: OVCAR-5
[33] = system: OVCAR-8
[34] = system: PC-3
[35] = system: RPMI-8226
[36] = system: RXF 393
[37] = system: SF-268
[38] = system: SF-295
[39] = system: SF-539
[40] = system: SK-MEL-2
[41] = system: SK-MEL-5
[42] = system: SK-OV-3
[43] = system: SN12C
[44] = system: SNB-19
[45] = system: SNB-75
[46] = system: SW-620
[47] = system: T47D
[48] = system: TK-10
[49] = system: U-251
[50] = system: UACC-257
[51] = system: UACC-62
[52] = system: UO-31
[53] = system: A498
[54] = system: IGROV-1
[55] = system: M14
[56] = system: NCI-H522
[57] = system: SK-MEL-28
[58] = system: SR

Measured: GI50

Clc1ccc(C2=NCON=C2c2ccc(Cl)cc2)cc1
active: [47] 0.71 µM
inactive: [1] 19.7 µM | [2] 31.3 µM | [3] 19 µM | [4] 19.5 µM | [5] 21.6 µM | [6] 24.3 µM | [7] 16.3 µM | [8] 30.5 µM | [9] 15.1 µM | [10] 15.2 µM | [11] 13.6 µM | [13] 14.5 µM | [14] 25.6 µM | [15] 18.4 µM | [16] 13.6 µM | [17] 13.8 µM | [18] 23.9 µM | [19] 15.5 µM | [20] 15.1 µM | [21] 25.6 µM | [22] 18.1 µM | [23] 18.8 µM | [24] 15.9 µM | [25] 14.5 µM | [26] 14.5 µM | [27] 16.8 µM | [28] 19.7 µM | [29] 21.5 µM | [30] 15.8 µM | [31] 27.4 µM | [32] 20.1 µM | [33] 25.6 µM | [34] 18.2 µM | [35] 16.8 µM | [36] 18.7 µM | [37] 19.7 µM | [38] 16.6 µM | [39] 15.3 µM | [40] 19.9 µM | [41] 16.6 µM | [42] 14.5 µM | [43] 19 µM | [44] 28 µM | [45] 24.8 µM | [46] 19.9 µM | [48] 23.9 µM | [49] 18.3 µM | [50] 25.1 µM | [51] 18.9 µM | [52] 15.7 µM
19.4 µM: [12]

Cc1ccc(S(=O)(=O)NC(=O)NC2=NC(C)(C)N(c3ccc(Cl)c(Cl)c3)C(N)=N2)cc1
active: [34] 0.552 µM
inactive: [1] 8.3 µM | [53] > 100 µM | [2] 2.92 µM | [3] 11.1 µM | [4] > 100 µM | [5] 49.5 µM | [6] 4.74 µM | [7] 10.2 µM | [8] 64.4 µM | [9] > 100 µM | [10] 15.9 µM | [11] 3.72 µM | [13] 29.5 µM | [14] 7.59 µM | [16] 28.7 µM | [17] 47.8 µM | [54] 19 µM | [18] 1.94 µM | [19] 65.8 µM | [55] 17.6 µM | [21] 25.8 µM | [22] 7.98 µM | [23] 5.04 µM | [24] 7.43 µM | [25] 4.01 µM | [26] 67.8 µM | [27] 11.4 µM | [28] 36 µM | [56] > 100 µM | [29] > 100 µM | [30] > 100 µM | [31] > 100 µM | [32] > 100 µM | [33] 9.89 µM | [36] 66.7 µM | [37] 20.5 µM | [38] 41.5 µM | [39] 29.2 µM | [57] > 100 µM | [40] > 100 µM | [41] 18.3 µM | [42] > 100 µM | [43] 20.6 µM | [44] 97.9 µM | [45] 31.6 µM | [58] 8.75 µM | [46] 4.66 µM | [47] 10.4 µM | [48] 84.7 µM | [49] 5.68 µM | [50] 36 µM | [51] 7.59 µM | [52] > 100 µM
61.2 µM: [12]
